In patent publication US11510896B2, “Antiviral compositions for the treatment of infections linked to coronaviruses” (priority 2016, dated 2022):

What was measured:
[1] = system: MERS-CoV strain France-UAE/1612/2013; experiment: microbe, parasite or virus in culture; assay type: cell-based, MERS-CoV coronavirus; conditions: for IC50: Middle East respiratory syndrome-related coronavirus, Vero C1008, 24 h, read-out: IC50 (dose necessary to obtain a 50% viral production inhibition)
horses = horses versus ruminants; cited from earlier work

| Compound | reduction of the infectious titres with respect to the control ([1]; 6 μM) [%] | IC50 [1] [nM] | LD50 in horses, times less than in ruminants (horses) [times] | reduction of the infectious titres with respect to the control ([1]; 12.5 μM) [%] |
| --- | --- | --- | --- | --- |
| CC[C@@]1([C@@H]2O[C@@H]([C@H]3O[C@@](O)(CO)[C@H](C)C[C@@H]3C)C[C@@H]2C)CC[C@H]([C@]2(C)CC[C@]3(C[C@H](O)[C@@H](C)[C@@H]([C@@H](C)[C@@H](OC)[C@H](C)C(=O)O)O3)O2)O1 [monensin, Monensin] | 97.8 | 1250 | 100 | – |
| COc1ccc2cc3[n+](cc2c1OC)CCc1cc2c(cc1-3)OCO2 [berberine, Berberine] | – | 3800 | – | 78.4 |
